Laboratory results from patent US10942159B2, “Product sustainability scorecard” (Symrise AG, priority 2016, dated 2021).

Assays:
[1] = Product Sustainability Scorecard: process safety with regard to human toxicity (Product Tox score from GHS H-phrases and supplier score); conditions: consolidated scorecard score, normalized scale 0 to 100 without dimension
From the text: (§1) Hazard statements form part of the ‘Globally Harmonized System of Classification and Labelling of Chemicals’ (GHS). They are intended to form a set of standardized phrases about the hazards of chemical substances and mixtures.
(§2) H200: Physical Hazards (=Toxicity and Eco Toxicity)
H300: Health Hazards (=Toxicity)
(§3) Scheme 4 and 5: Scoring • STEP 1 Evaluation of the ‘(Eco) Toxicity Material Score’ and ‘Critical By-Product Score’ of each reactant and its potential by-products based on the safety according to material properties:
(§4) • STEP 2 Evaluation of the ‘(Eco) Tox Supplier Score’ of each reactant based on process safety according to chemical handling (see appendix for further information):
(§5) • STEP 3 Calculation of the overall ‘(Eco) Tox Score’ of each reactant and the final product. […] If the supplier score is better, it outweighs the material score—following the assumption that a safe and controlled production environment is able to avert the risks of hazardous materials: MAX(‘(Eco) Tox Material Score’;‘(Eco) Tox Supplier Score’)=(Eco) Tox Score • (ii) Composed products: For composed products the (Eco) Tox Score combines the hazard and supplier information of the composed product itself (calculated as above) with the (Eco) Tox Score of its reactants. […]
The score for the overall human toxicity S(HTOX) is calculated according to the following equation (4): S(HTOX)=⅔*MAX(Ma;Pa)+⅓*(Mb*Cb)+ . . . […]

[2] = Product Sustainability Scorecard: process safety with regard to ecological toxicity (Product EcoTox score from GHS H-phrases and supplier score); conditions: consolidated scorecard score, normalized scale 0 to 100 without dimension
From the text: as §1, §2
H400: Environmental Hazards (=Eco Toxicity)
as §3, §4, §5

[3] = Product Sustainability Scorecard: biodegradability score according to OECD Method 301/302; conditions: consolidated scorecard score, scale 0 to 100; score equals % biodegradation after 28-day OECD 301 test
Protocol: Biodegradation is one of the most important factors in assessing the environmental fate of chemicals. Biodegradation is the chemical dissolution of materials by bacteria, fungi, or other biological means. Biodegradability is evaluated according to the OECD Method 301/302 or equivalent. The tests of the OECD test series 301 (A-F) verify whether a substance is able for complete biodegradation under aerobic conditions. Different test methods are available for well or poorly soluble as well as volatile substances. The test usually takes 28 days. Test items must reach 60% biodegradation within 10 days to be classified as ‘ready biodegradable’.
Scheme 1: Scoring • STEP 1 Evaluation of the “Biodegradability Score” of the fragrance raw material based on the following scoring system
The score for biodegradability of the compound or the compounds is evaluated according to OECD Method 301/302 or equivalent.

In the case of 44_Dihydro Myrcenol [44DHM], the “Product Tox” value [1] is reported as 80.38, the “Product EcoTox” value [2] is reported as 87.73 and the Biodegradability [3] is reported as 100.00.
